# Source: US11795200B2, “Nano small peptide and its use in preparation of drugs for treating and preventing fundus vascular diseases” (FUTU Biotech Co., Ltd., priority 2021, dated 2023)
# Read-outs that look alike come from different tables or passages of the source. Non-standard residues stand in square brackets, D forms with d. Residues, ends and D or L forms follow the SMILES beside them. No end group written: not given here. *: point of attachment. Palmitoyl = CCCCCCCCCCCCCCCC(=O)*
# Legend:
# [1] = DLS particle size and zeta potential of FH and FG nanoparticles; format: physicochemical; conditions: zeta sizer, 25° C.
# Method: First, FG and FH nanoparticle solutions with a concentration of 20 μM were prepared as follows. 0.01 mmol of FG (or FH) was weighed and dissolved in 1 mL of DMSO solution, and then diluted into 5 folds to a concentration of 2 mM, thus obtaining mother solution A. 10 μL of mother solution A was quickly added to 1 mL of water, and the resulting solution was then vortexed for 30 s to obtain a nanoparticle solution. Second, samples were made. 10 ul of FG (or FH) solution was added dropwise onto a copper mesh for 5 min, and the excess solution was removed with filter paper. 10 μL of uranyl acetate stain was added dropwise for 5 min, and the excess stain was removed with filter paper. Washing with 10 μl of deionized water was carried out once. The samples were dried in vacuum overnight. Finally, transmission electron microscopy observations were performed on an HT-7700 transmission electron microscope (Hitachi, Tokyo, Japan). Scale bar was 200 nm.
# The particle size and zeta potential of FH and FG nanoparticles were measured with a zeta sizer (Nano ZZ90, Malvern, UK) at 25° C.
# [2] = tested on: mouse brain microvascular endothelial cells; experiment: sSema4D-induced endothelial cell leakage (transmembrane resistance); format: cell-based; conditions: 36 h; for effect on endothelial cell leakage compared with BMA-12: 20 μM vs BMA-12 2 μg/μL; for sSema4D-induced endothelial cell leakage: 20 μM, sSema4D 1600 ng/mL
# Method: A layer of fibronectin was first applied to coat the upper layer of a 24-well transwell chamber (0.4 um) and incubated at room temperature for 1 h; after coating, the mouse brain microvascular endothelial cells were seeded, and cultured for 5 days until the cells were full, and then FH (20 μM), FG (20 μM), and Sema4D neutralizing antibody (BMA-12) (2 μg/μL) were added to the medium (the concentration of sSema4D in the medium was 1600 ng/mL), respectively. An equal volume of DMSO was added as a control, and ECM was used as a blank control. After incubation for 36 h, the resistance value was measured by a cell transmembrane resistance measuring instrument.
# [3] = tested on: endothelial cells (primary endothelial cells of mouse brain microvessels); experiment: CCK8 cytotoxicity assay; conditions: 20 μM; 12, 14, and 36 h
# [4] = In vivo imaging of small animals, entry into vitreous humor; conditions: eye drops (10 μL, 20 μM, three times) and vitreous injection (1 μl, 20 μM)
# Method: (§1) 10 μL of FH and FG eye drops (with the concentration of 20 μM, the solvent therein was artificial tears) were instilled on the eyeball surface of mice (8-week-old C57 male mice), once at an interval of 1 h. One hour after the third eye drop, the mice were anesthetized to have cardiac perfusion, the eyeballs of the mice were taken out, the connective tissue on the eye surface was trimmed, and the eyeballs were washed with PBS solution for several times to remove the nano eye drops from the surface of the eyeballs. The eyeball was placed in a small animal imager (at emission wavelength of 535 nm and excitation wavelength of 490 nm) for image acquisition.
# sSema4D = target: T1, sSema4D (Mus musculus, UniProt O09126); experiment: Reduction of sSema4D concentration in a simple medium system (ELISA); format: biochemical; parameters: the free Sema4D protein after enzyme cleavage of Sema4D; purchased R&D Systems; conditions: for sSema4D concentration: medium with 1600 ng/mL sSema4D, FH, FG 20 μM, BMA-12 2 μg/μL
# T1 sequence (O09126 24-733 limits assumed): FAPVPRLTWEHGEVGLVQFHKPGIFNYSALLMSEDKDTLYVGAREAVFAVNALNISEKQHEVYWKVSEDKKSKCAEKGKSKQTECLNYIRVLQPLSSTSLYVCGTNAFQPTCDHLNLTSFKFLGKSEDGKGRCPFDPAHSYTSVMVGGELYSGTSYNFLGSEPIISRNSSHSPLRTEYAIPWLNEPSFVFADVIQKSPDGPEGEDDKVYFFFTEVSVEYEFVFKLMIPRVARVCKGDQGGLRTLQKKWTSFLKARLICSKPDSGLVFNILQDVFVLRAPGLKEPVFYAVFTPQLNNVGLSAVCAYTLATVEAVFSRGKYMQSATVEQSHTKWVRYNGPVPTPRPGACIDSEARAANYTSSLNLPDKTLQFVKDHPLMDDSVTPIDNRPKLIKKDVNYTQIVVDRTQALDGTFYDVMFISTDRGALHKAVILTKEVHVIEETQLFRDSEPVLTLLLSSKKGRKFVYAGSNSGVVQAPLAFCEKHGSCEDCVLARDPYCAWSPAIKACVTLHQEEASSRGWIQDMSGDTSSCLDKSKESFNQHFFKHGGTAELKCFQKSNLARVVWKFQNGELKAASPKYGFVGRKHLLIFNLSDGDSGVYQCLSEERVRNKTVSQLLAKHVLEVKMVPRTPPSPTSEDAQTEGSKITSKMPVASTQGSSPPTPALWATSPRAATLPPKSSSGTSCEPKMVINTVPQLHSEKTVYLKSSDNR
# Method: The nano small peptides FH, FG, DMSO, and Sema4D neutralizing antibody (BMA-12) were added to the medium (the concentration of sSema4D in the medium was 1600 ng/mL) to ensure that the final concentration of FH and FG was 20 μM, and the final concentration of the Sema4D neutralizing antibody (BMA-12) (BMA-12, i.e., anti-Sema4D) was 2 μg/μL, an equal volume of DMSO was then added as a control, and culture plates were set still at 37° C. for 12, 24, 36, and 48 h, and the culture medium was collected, and the expression of Sema4D protein in the supernatant was detected using an ELISA kit (Shanghai Yuanmu Biotechnology Co., Ltd.).
# [5] = mouse, in vivo
# Method: as §1
charges (zeta potential) [1],particle diameters [1] [nm],entry into the vitreous humor of mice [4],sSema4D concentration (sSema4D; 24 h),"effect on sSema4D concentration, FH compared with FG (sSema4D; within the same action time, 20 μM)",entry into the vitreous humor of mice [5],Molecule,effect on endothelial cell leakage compared with BMA-12 [2],sSema4D-induced endothelial cell leakage [2],toxic effects on endothelial cells [3],sSema4D concentration (sSema4D; 36 h)
+40.4 mV,54.43±2.8,entered the vitreous humor of mice,can reduce the sSema4D concentration,better than that of FG,–,CCCCCCCCCCCCCCCC(=O)N[C@H](Cc1ccccc1)C(=O)N[C@@H](Cc1ccccc1)C(=O)N[C@H](C(=O)N[C@@H](CC(C)C)C(=O)N[C@@H](CCCCN)C(=O)N[C@@H](CCCCN)C(=O)N[C@@H](CCC(N)=O)C(=O)N[C@@H](CCCCN)C(=O)N[C@@H](CCCNC(=N)N)C(=O)N1CCC[C@H]1C(=O)N[C@@H](CCCNC(=N)N)C(=O)N[C@@H](Cc1c[nH]cn1)C(=O)O)C(C)C [FH] (Palmitoyl-[dF]FVLKKQKRPRH-OH),comparable to that of Sema4D neutralizing antibody (BMA-12),can significantly inhibit sSema4D-induced endothelial cell leakage,did not cause toxic effects,can still reduce the sSema4D concentration
+44.8 mV,57.67±2.6,–,can reduce the sSema4D concentration,–,entered the vitreous humor of mice,Palmitoyl-FFVLKKNKAAKG [FG],comparable to that of Sema4D neutralizing antibody (BMA-12),can significantly inhibit sSema4D-induced endothelial cell leakage,–,can still reduce the sSema4D concentration
